Reference: ChEMBL document CHEMBL4251725, “Azabicyclic Fused Pyrimidine Derivatives Useful for the Treatment of Alzheimer's Disease” (ACS Med Chem Lett, 2018)

Molecular target: Gamma-secretase
Assay: Inhibition of gamma-secretase in human H4 cells harboring APP695 K595N/M596L swedish mutant after 24 hrs by AlphaLisa assay
Type: cell-based

| Structure (SMILES) | EC50 |
| --- | --- |
| CNc1nc(Nc2ccc(-n3cnc(C)n3)c(F)c2)nc2c1C(C)(C)CCN2c1ccc(F)cc1 | 8 nM |
| CNc1nc(Nc2ccc(-n3cnc(C)c3)c(OC)c2)nc2c1C(C)(C)CN2C1CC(F)(F)C1 | 14 nM |
